Publication PMC5049494, “Nitrotriazole-based acetamides and propanamides with broad spectrum antitrypanosomal activity” (European Journal of Medicinal Chemistry, 2016)
Read-outs that look alike come from different tables or passages of the source.

Legend:
[1] = system: transgenic T. cruzi parasites expressing firefly luciferase; type: in vivo, Balb/c mice; conditions: for parasite load after 10 days of treatment: acute murine model, p < 0.0001; for parasitic level after 5-day treatment: compared to untreated control
Description: A fast luminescence assay was used in an acute infected murine model, in which transgenic T. cruzi parasites expressing firefly luciferase were injected in 5 week-old Balb/c mice. Mice were injected with D-luciferin before imaging. Groups of 5 mice/group were treated i.p. for 10 consecutive days with each compound, at 13 or 15 mg/kg/day. […] The mean ratio of parasite levels was calculated after 5 and 10 days of treatment.
For in vivo studies, a Brazilian strain trypomastigotes from transgenic T. cruzi parasites expressing firefly luciferase were used as described before. Briefly, parasites (10^5 trypomastigotes) were injected in 5 week-old Balb/c mice (Taconic) and three days later mice were anesthesized by inhalation of isofluorane, followed by an injection with 150 mg/kg of D-luciferin potassium-salt in PBS. Mice were imaged 5–10 min after injection of luciferin with an IVIS 100 (Xenogen, Alameda, CA) and the data acquisition and analysis were performed with the software LivingImage (Xenogen) as described before. Treatment with test compounds started 4 days post infection at 13 or 15 mg/kg/day × 10 days, given i.p. The vehicle control was 2% methylcellulose +0.5% Tween 80 and groups of 5 mice/group were used. Mice were imaged after 5 and 10 days of treatment. The ratio of parasite levels was calculated for each animal dividing the luciferase signal after treatment by the luciferase signal on the first imaging (before treatment). Mean values of all animals in each group ± SD were used for plotting.

[2] = system: T.b. rhodesiense, strain STIB 900 trypomastigotes; assay: In vitro activity against T. b. rhodesiense; type: cell-based; conditions: for SI (T.b.r.): IC50 in L6 cells/IC50 in T.b. rhodesiense; for anti-HAT activity class (TDR criteria): T. b. rhodesiense; for IC50: Trypanosoma brucei, read-out: T.b.r. IC50; for fold more potent against T. b. rhodesiense than the corresponding acetamide: propanamide vs acetamide analog
Description: (§1) Compounds in Table 1 were screened for anti-parasitic activity against three trypanosomatids: T. cruzi, T. b. rhodesiense and Leishmania donovani and compared with previously made analogs shown in orange and designated with a. […] In addition, compounds were tested for toxicity in L6 rat skeletal myoblasts, the host cells for T. cruzi amastigotes, in order to calculate a selectivity index for each parasite [SI = IC50L6/IC50parasite] (Table 1). The TDR (Special Programme for Research and Training in Tropical Diseases, World Health Organization) criteria were adopted to interpret antiparasitic activity and selectivity.
(§2) In vitro activity against T. cruzi, T. b. rhodesiense, L. donovani and cytotoxicity assessment using L6 cells (rat skeletal myoblasts) was determined using a 96-well plate format as previously described. Data were analyzed with the graphic program Softmax Pro (Molecular Devices, Sunnyvale, CA, USA), which calculated IC50 values by linear regression from the sigmoidal dose inhibition curves.

[3] = system: T.b. rhodesiense, strain STIB 900 trypomastigotes; set-up: method as in PMID 26344593, PMID 25580906; conditions: cited from earlier work; for anti-HAT activity class (TDR criteria): T. b. rhodesiense, previously evaluated acetamides; for IC50: previously evaluated compounds (orange, designated a), read-out: T.b.r. IC50
[4] = system: T. cruzi, strain Tulahuen C4 amastigotes; conditions: cited from earlier work; for IC50: previously evaluated compounds (orange, designated a), read-out: T. c. IC50; for SI (T. c.): IC50 L6/IC50 parasite; for SI (T. c.) / Bnz/comp: previously evaluated compounds; for Bnz/comp: fold potency relative to Bnz
[5] = system: L. donovani axenic, strain MHOM-ET-67/L82 amastigotes; set-up: method as in PMID 26344593, PMID 25580906; conditions: cited from earlier work; for IC50: previously evaluated compounds (orange, designated a), read-out: L.d. IC50; for SI (L.d.): IC50 L6/IC50 parasite, previously evaluated compounds
[6] = system: T. cruzi, strain Tulahuen C4 amastigotes; assay: In vitro activity against T. cruzi; type: cell-based; conditions: for IC50: Trypanosoma cruzi, T. cruzi Tulahuen C4 amastigotes, means of 2 to 3 measurements, SD < 5%, read-out: T. c. IC50; for Bnz/comp: fold antichagasic potency relative to Bnz (T. cruzi IC50 ratio); for SI (T. c.): IC50 in L6 cells/IC50 in T. cruzi
Description: (§3) The concentration of compound that inhibits parasite growth by 50% (IC50) was calculated from dose response curves for each parasite (Table 1). In addition, compounds were tested for toxicity in L6 rat skeletal myoblasts, the host cells for T. cruzi amastigotes, in order to calculate a selectivity index for each parasite [SI = IC50L6/IC50parasite]
(§4) In vitro activity against T. cruzi, T. b. rhodesiense, L. donovani and cytotoxicity assessment using L6 cells (rat skeletal myoblasts) was determined using a 96-well plate format as previously described [37]. Data were analyzed with the graphic program Softmax Pro (Molecular Devices, Sunnyvale, CA, USA), which calculated IC50 values by linear regression from the sigmoidal dose inhibition curves.

[7] = system: L. donovani axenic, strain MHOM-ET-67/L82 amastigotes; assay: In vitro activity against L. donovani; type: cell-based; conditions: for SI (L.d.): IC50 in L6 cells/IC50 in L. donovani; for IC50: Leishmania donovani, L. donovani axenic amastigotes MHOM-ET-67/L82, means of 2 to 3 measurements, SD < 5%, read-out: L.d. IC50
Description: as §3, §4

[8] = Cytotoxicity in the host L6 cells; type: cell-based, rat; conditions: rat, L6 cells (rat skeletal myoblasts); cytotoxicity in host L6 cells; read-out: Cyt. L6 IC50
Description: as §1, §2

[9] = system: L6 cells (rat skeletal myoblasts); set-up: method as in PMID 26344593, PMID 25580906; conditions: previously evaluated compounds (orange, designated a); read-out: Cyt. L6 IC50; cited from earlier work
[10] = system: bloodstream form T.b. brucei wild type; assay: T. brucei antiproliferating assay, wild type; type: cell-based; conditions: means from 4 experiments ± SD
Description: The BSF of T. brucei parasites were seeded at 1 × 10^3 mL^−1 in 200 μL of growth medium containing different concentrations of nitroheterocycle. Where appropriate, induction of the TbNTR was carried out by adding tetracycline (1 μg/mL). After incubation for 3 days at 37 °C, 20 μL of Alamar blue was added to each well and the plates incubated for a further 16 h. The cell density of each culture was determined as described before and the IC50 established.

[11] = system: bloodstream form T.b. brucei recombinant parasites expressing wild type (-tet) or elevated (+tet) levels of TbNTR; assay: microbe, parasite or virus in culture; type: cell-based; conditions: for IC50: Trypanosoma brucei; for Ratio –tet/+tet: ratio of IC50 values -tet/+tet
Description: The BSF of T. brucei parasites were seeded at 1 × 10^3 mL^−1 in 200 μL of growth medium containing different concentrations of nitroheterocycle. Where appropriate, induction of the TbNTR was carried out by adding tetracycline (1 μg/mL). After incubation for 3 days at 37 °C, 20 μL of Alamar blue was added to each well and the plates incubated for a further 16 h. The cell density of each culture was determined as described before [20] and the IC50 established.

[12] = T.b. rhodesiense STIB 900 trypomastigotes, means of 2 to 3 measurements, SD < 5%
[13] = Trypanosoma brucei, read-out: IC50 value T.b. brucei Wild type, bloodstream form
[14] = read-out: IC50 value T.b. brucei TbNTR (+tet)
[15] = read-out: IC50 value T.b. brucei TbNTR (-tet)

In the case of `O=C(Cn1ccnc1[N+](=O)[O-])NCc1ccccc1` [Bnz, Benznidazole, reference compound], the “parasite load after 10 days of treatment” value ([1]; 15 mg/kg/day i.p. x 10 days) is reported as “undetectable levels” and the “parasitic level after 5-day treatment” value ([1]; 15 mg/kg/day i.p.) is reported as “Statistically significant reduction in parasitic level”.

For `O=C(Cn1cnc([N+](=O)[O-])n1)NCc1ccc(C(F)(F)F)cc1` [Compound 2a], the “fold more potent against T. b. rhodesiense than 2” value ([2]; compared with N-methyl acetamide 2) is listed as 5.8 fold, the “anti-HAT activity class (TDR criteria)” value [3] is listed as “inactive” and the IC50 [3] is listed as 6.47 µM. For the same compound, the IC50 [4] was 0.97 µM and the IC50 [5] was 10.4 µM.

In the case of `CN(C(=O)Cn1ccnc1[N+](=O)[O-])c1ccc(C(F)(F)F)cc1` [Compound 3, N-methyl-2-(2-nitro-1H-imidazol-1-yl)-N-(4-(trifluoromethyl)phenyl)acetamide], the “SI (T.b.r.)” value [2] is reported as 1.9, the “anti-HAT activity class (TDR criteria)” value [2] is reported as “inactive” and the IC50 [2, 12] is reported as 97.7 µM. The “antichagasic activity class (TDR criteria)” value ([6]; T. cruzi) was “moderately active (IC50 between 4.0 and 60 μM)”, the IC50 [6] was 49.4 µM and the “SI (L.d.)” value [7] was 3.96. It also gave an IC50 [7] of 47.7 µM, an IC50 [8] of 189 µM and a melting point of 45 to 47 °C.

For `O=C(Cn1cnc([N+](=O)[O-])n1)Nc1ccc(Oc2ccc(Cl)cc2)cc1` [Compound 6a], the IC50 [3] is listed as 1.33 µM, the “SI (T. c.)” value [4] is listed as 3615 and the Bnz/comp [4] is listed as 254. The “SI (L.d.)” value [5] was 853, the IC50 [5] was 0.034 µM and the IC50 [9] was 28.9 µM.

Work on `O=C(CCn1cnc([N+](=O)[O-])n1)Nc1ccc(Oc2ccc(F)cc2)cc1` [Compound 7, N-(4-(4-fluorophenoxy)phenyl)-3-(3-nitro-1H-1,2,4-triazol-1-yl)propanamide] yielded an IC50 [2, 12] of 0.167 µM, an IC50 [6] of 0.04 µM and a Bnz/comp [6] of 55. For the same compound, the IC50 [7] was 1.18 µM, the IC50 [8] was 23.4 µM and the IC50 [10, 13] was ~0.65 µM. For the same compound, the IC50 ([10]; read-out: IC50 value T.b. brucei Wild type, bloodstream form) was 0.57 ± 0.05 µM, the IC50 [11, 14] was 0.33 ± 0.03 µM and the IC50 [11, 15] was 0.68 ± 0.07 µM. The “toxicity symptoms in treated mice” value ([1]; 13 mg/kg/day i.p. x 10 days) was “No toxicity symptoms were observed”, the “parasite load after 10 days of treatment” value ([1]; 13 mg/kg/day i.p. x 10 days) was “undetectable levels” and the “parasitic level after 5-day treatment” value ([1]; 13 mg/kg/day i.p.) was “Statistically significant reduction in parasitic level”.

In the case of `O=C(Cn1cnc([N+](=O)[O-])n1)Nc1ccc(Oc2ccc(F)cc2)cc1` [Compound 7a], the IC50 [3] is given as 2 µM, the “SI (T. c.)” value [4] is given as 1954 and the Bnz/comp [4] is given as 56. For the same compound, the IC50 [4] was 0.036 µM, the “SI (L.d.)” value [5] was 384 and the IC50 [5] was 0.183 µM. For the same compound, the IC50 [9] was 70.4 µM.

For `O=C(CCn1cnc([N+](=O)[O-])n1)Nc1ccc(Oc2ccccc2)cc1` [Compound 8, 3-(3-Nitro-1H-1,2,4-triazol-1-yl)-N-(4-phenoxyphenyl)propanamide], the “SI (T.b.r.)” value [2] was 203, the IC50 [2, 12] was 0.156 µM and the “fold more potent against T. b. rhodesiense than the corresponding acetamide” value [2] was 17.4 fold. For the same compound, the “SI (T. c.)” value [6] was 398, the IC50 [6] was 0.079 µM and the Bnz/comp [6] was 28. For the same compound, the IC50 [7] was 2.33 µM, the IC50 [8] was 31.6 µM and the IC50 [10, 13] was 0.14 ± 0.01 µM. It also gave an IC50 [11, 14] of 0.41 ± 0.01 µM, an IC50 [11, 15] of 1.47 ± 0.03 µM and a melting point of 108 to 110 °C.

In the case of `O=C(Cn1cnc([N+](=O)[O-])n1)Nc1ccc(Oc2ccccc2)cc1` [Compound 8a], the IC50 [3] is given as 2.72 µM, the “SI (T. c.)” value [4] is given as 1416 and the Bnz/comp [4] is given as 31. For the same compound, the IC50 [4] was 0.065 µM, the “SI (L.d.)” value [5] was 339 and the IC50 [5] was 0.271 µM. For the same compound, the IC50 [9] was 92 µM.

With `O=C(CCn1cnc([N+](=O)[O-])n1)Nc1cccc(-c2ccccc2)c1` [Compound 10, N-([1,1′-biphenyl]-3-yl)-3-(3-nitro-1H-1,2,4-triazol-1-yl)propanamide] the “SI (T.b.r.)” value [2] was 134, the IC50 [2, 12] was 0.27 µM and the “fold more potent against T. b. rhodesiense than the corresponding acetamide” value [2] was 214 fold. For the same compound, the “SI (T. c.)” value [6] was 452, the IC50 [6] was 0.08 µM and the Bnz/comp [6] was 28. For the same compound, the “fold more potent against T. cruzi than the acetamide analog” value ([6]; propanamide vs acetamide analog) was 2.2 fold, the “SI (L.d.)” value [7] was 10.2 and the IC50 [7] was 3.55 µM. For the same compound, the IC50 [8] was 36.2 µM, the IC50 [10, 13] was 6.66 ± 0.92 µM and the IC50 [11, 14] was 0.23 ± 0.02 µM. The IC50 [11, 15] was 5.58 ± 0.62 µM and the melting point was 174 to 176 °C.

In the case of `O=C(Cn1cnc([N+](=O)[O-])n1)Nc1cccc(-c2ccccc2)c1` [Compound 10a], the IC50 [9] is listed as 45.3 µM.

In the case of `O=C(Cn1cnc([N+](=O)[O-])n1)Nc1cccc(OCc2ccccc2)c1` [Compound 11a], the “anti-HAT activity class (TDR criteria)” value [3] is listed as “moderately active (IC50 between 0.5 and 6.0 μM)”, the IC50 [3] is listed as 4.86 µM and the Bnz/comp [4] is listed as 17. For the same compound, the IC50 [5] was 3.36 µM and the IC50 [9] was 68.4 µM.

With `O=C(CCn1cnc([N+](=O)[O-])n1)Nc1cc(-c2ccc(F)cc2)on1` [Compound 12, N-(5-(4-fluorophenyl)isoxazol-3-yl)-3-(3-nitro-1H-1,2,4-triazol-1-yl)propanamide] the “SI (T.b.r.)” value [2] was >201, the “anti-HAT activity class (TDR criteria)” value [2] was “moderately active (IC50 between 0.5 and 6.0 μM)” and the IC50 [2, 12] was 1.44 µM. For the same compound, the “fold more potent against T. b. rhodesiense than the corresponding acetamide” value [2] was 5.6 fold, the “SI (T. c.)” value [6] was >794 and the IC50 [6] was 0.364 µM. The Bnz/comp [6] was 6, the “SI (L.d.)” value [7] was >37 and the “antileishmanial activity class (TDR criteria)” value ([7]; L. donovani) was “inactive”. For the same compound, the IC50 [7] was 7.79 µM, the IC50 [8] was > 289 µM and the IC50 [10, 13] was 0.76 ± 0.1 µM. The IC50 [11, 14] was 0.4 µM, the IC50 [11, 15] was 1.61 ± 0.1 µM and the “Ratio –tet/+tet” value [11] was 4.1. The melting point was 215 °C (dec.).

`Nc1nc(N)nc(Nc2ccc([As]3SCC(CO)S3)cc2)n1` (centres unmarked) [Melars., Melarsoprol, reference compound] gave an IC50 [2] of 0.009 ± 0.001 µM.

`CC1CS(=O)(=O)CCN1/N=C/c1ccc([N+](=O)[O-])o1` (centres unmarked) [nfx, Nifurtimox, reference compound] gave an IC50 ([10]; Trypanosoma brucei, bloodstream form, read-out: IC50 value T.b. brucei Wild type) of 3.98 ± 0.15 µM, an IC50 [11, 14] of 0.869 ± 0.046 µM and an IC50 [11, 15] of 6.36 ± 0.119 µM. The “Ratio –tet/+tet” value [11] was 7.3.
